Results: ChEMBL document CHEMBL5726074, “Histone demethylase inhibitors” (2017)

Columns and labels:
[1] = molecular target: T1, Lysine-specific demethylase 4C (Homo sapiens, UniProt Q9H3R0); assay: Enzymatic Assay: The ability of test compounds to inhibit the activity of JMJD2C was determined in 384-well plate format under the following reaction conditions: 0.3 nM JMJD2C, 300 nM H3K9me3-biotin labeled peptide (Anaspec cat #64360), 2 μM alpha-ketoglutaric acid in assay buffer of 50 mM HEPES, pH7.3, 0.005% Brij35, 0.5 mM TCEP, 0.2 mg/ml BSA, 50 μM sodium L-ascorbate, and 2 μM ammonium iron(II) sulfate. Reaction product was determined quantitatively by TR-FRET after the addition of detection reagent Phycolink Streptavidin-allophycocyanin (Prozyme) and Europium-anti-di-methylated histone H3 lysine 9 (H3K9me2) antibody (PerkinElmer) in the presence of 5 mM EDTA in LANCE detection buffer (PerkinElmer) at a final concentration of 50 nM and 1 nM, respectively.The assay reaction was initiated by the following: 2 μl of the mixture of 900 nM H3K9me3-biotin labeled peptide and 6 μM alpha-ketoglutaric acid with 2 μl of 11-point serial diluted inhibitor in 3% DMSO were added to each well of the plate, followed by the addition of 2 μl of 0.9 nM JMJD2C to initiate the reaction. The reaction mixture was incubated at room temperature for 30 minutes, and terminated by the addition of 6 μl of 5 mM EDTA in LANCE detection buffer containing 100 nM Phycolink Streptavidin-allophycocyanin and 2 nM Europium-anti-H3K9me2 antibody. […]
T1 sequence (Q9H3R0 whole entry): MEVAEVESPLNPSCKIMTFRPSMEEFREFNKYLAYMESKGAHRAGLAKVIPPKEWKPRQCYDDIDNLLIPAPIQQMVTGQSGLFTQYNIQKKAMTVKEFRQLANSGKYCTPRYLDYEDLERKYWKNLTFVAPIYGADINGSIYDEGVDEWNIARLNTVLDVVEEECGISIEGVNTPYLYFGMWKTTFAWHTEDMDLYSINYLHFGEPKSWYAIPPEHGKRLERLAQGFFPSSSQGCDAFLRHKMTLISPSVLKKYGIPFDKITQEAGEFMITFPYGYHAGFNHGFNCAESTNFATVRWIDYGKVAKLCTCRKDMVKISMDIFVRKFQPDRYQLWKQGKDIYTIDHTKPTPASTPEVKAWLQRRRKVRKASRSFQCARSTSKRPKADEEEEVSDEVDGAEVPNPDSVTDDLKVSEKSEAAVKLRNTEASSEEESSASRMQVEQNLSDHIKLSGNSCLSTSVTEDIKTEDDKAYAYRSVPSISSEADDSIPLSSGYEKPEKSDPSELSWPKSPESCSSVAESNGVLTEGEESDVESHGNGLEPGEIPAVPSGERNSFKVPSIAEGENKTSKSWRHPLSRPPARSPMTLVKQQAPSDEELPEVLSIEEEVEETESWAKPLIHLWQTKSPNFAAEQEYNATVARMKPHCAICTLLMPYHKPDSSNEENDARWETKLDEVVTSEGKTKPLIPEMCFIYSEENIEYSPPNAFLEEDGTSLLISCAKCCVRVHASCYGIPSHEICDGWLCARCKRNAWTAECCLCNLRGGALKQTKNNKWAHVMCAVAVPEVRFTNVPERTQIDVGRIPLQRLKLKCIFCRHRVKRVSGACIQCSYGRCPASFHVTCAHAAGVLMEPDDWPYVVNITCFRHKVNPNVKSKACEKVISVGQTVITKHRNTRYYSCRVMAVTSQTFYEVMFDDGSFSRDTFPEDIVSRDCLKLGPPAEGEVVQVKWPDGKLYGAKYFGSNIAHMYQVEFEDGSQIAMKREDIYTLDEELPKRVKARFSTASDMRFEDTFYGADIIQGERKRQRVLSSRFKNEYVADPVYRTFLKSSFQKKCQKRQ

[2] = molecular target: Lysine-specific demethylase 5A (Homo sapiens, UniProt P29375); assay: Enzymatic Assay: The enzymatic assay of Jarid1A activity is based upon Time Resolved-Fluorescence Resonance Energy Transfer (TR-FRET) detection. The ability of test compounds to inhibit the activity of Jarid1A was determined in 384-well plate format under the following reaction conditions: 1 nM Jarid1A, 300 nM H3K4me3-biotin labeled peptide (Anaspec cat #64357), 2 μM alpha-ketoglutaric acid in …
[3] = molecular target: Lysine-specific demethylase 5B (Homo sapiens, UniProt Q9UGL1); assay: Enzymatic Assay: The ability of test compounds to inhibit the activity of Jarid1B was determined in 384-well plate format under the following reaction conditions: 0.8 nM Jarid1B, 300 nM H3K4me3-biotin labeled peptide (Anaspec cat #64357), 2 μM alpha-ketoglutaric acid in assay buffer of 50 mM HEPES, pH7.3, 0.005% Brij35, 0.5 mM TCEP, 0.2 mg/ml BSA, 50 μM sodium L-ascorbate, and 2 μM ammonium iron(II) sulfate. Reaction product was determined quantitatively by TR-FRET after the addition of detection reagent Phycolink Streptavidin-allophycocyanin (Prozyme) and Europium-anti-mono- or di-methylated histone H3 lysine 4 (H3K4me1-2) antibody (PerkinElmer) in the presence of 5 mM EDTA in LANCE detection buffer (PerkinElmer) at a final concentration of 25 nM and 1 nM, respectively.The assay reaction was initiated by the following: 2 μl of the mixture of 900 nM H3K4me3-biotin labeled peptide and 6 μM alpha-ketoglutaric acid with 2 μl of 11-point serial diluted inhibitor in 3% DMSO was added to each well of the plate, followed by the addition of 2 μl of 2.4 nM Jarid1B to initiate the reaction. The reaction mixture was incubated at room temperature for 30 minutes, and terminated by the addition of 6 μl of 5 mM EDTA in LANCE detection buffer containing 50 nM Phycolink Streptavidin-allophycocyanin and 2 nM Europium-anti-H3K4me1-2 antibody. […]

Measured: IC50

Lysine-specific demethylase 5B, sequence (Q9UGL1 whole entry): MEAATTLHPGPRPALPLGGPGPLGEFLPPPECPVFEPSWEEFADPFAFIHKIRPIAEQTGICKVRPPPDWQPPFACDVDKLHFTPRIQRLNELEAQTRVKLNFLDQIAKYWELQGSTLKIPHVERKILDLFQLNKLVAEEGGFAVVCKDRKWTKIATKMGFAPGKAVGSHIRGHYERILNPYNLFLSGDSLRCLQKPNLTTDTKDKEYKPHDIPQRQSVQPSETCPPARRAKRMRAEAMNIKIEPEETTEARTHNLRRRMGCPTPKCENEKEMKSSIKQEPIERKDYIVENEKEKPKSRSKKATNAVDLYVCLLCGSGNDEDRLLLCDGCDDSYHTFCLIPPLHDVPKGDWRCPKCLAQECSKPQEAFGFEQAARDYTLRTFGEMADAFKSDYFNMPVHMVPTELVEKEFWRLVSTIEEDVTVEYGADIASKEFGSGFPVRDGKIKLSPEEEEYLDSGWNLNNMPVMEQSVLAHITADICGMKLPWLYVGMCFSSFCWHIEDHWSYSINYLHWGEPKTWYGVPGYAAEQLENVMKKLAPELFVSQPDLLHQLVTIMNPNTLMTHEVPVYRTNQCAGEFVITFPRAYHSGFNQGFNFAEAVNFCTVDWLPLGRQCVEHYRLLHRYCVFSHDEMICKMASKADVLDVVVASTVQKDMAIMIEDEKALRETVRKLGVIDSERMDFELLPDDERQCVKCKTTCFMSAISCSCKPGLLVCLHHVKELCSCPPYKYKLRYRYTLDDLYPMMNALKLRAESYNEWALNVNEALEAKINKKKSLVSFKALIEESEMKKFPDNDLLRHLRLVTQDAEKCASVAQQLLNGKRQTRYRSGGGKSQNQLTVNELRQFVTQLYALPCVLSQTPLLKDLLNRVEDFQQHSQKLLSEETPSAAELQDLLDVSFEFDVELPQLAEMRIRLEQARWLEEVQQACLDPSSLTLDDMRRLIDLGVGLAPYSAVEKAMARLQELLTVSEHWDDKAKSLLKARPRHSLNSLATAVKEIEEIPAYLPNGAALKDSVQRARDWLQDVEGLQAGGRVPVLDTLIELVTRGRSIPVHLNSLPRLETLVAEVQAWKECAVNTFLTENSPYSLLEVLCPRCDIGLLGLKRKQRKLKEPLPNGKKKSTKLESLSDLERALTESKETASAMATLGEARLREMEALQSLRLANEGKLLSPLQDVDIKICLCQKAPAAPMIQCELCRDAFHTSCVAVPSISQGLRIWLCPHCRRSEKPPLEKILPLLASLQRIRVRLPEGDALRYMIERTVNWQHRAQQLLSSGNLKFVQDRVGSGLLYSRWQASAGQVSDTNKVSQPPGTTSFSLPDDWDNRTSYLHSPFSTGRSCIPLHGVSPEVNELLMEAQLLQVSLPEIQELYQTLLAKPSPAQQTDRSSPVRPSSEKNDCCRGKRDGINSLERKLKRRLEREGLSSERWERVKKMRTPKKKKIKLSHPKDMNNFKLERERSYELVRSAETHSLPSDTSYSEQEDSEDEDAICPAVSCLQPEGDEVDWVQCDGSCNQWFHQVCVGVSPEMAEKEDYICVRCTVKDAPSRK
Lysine-specific demethylase 5A, sequence (P29375 whole entry): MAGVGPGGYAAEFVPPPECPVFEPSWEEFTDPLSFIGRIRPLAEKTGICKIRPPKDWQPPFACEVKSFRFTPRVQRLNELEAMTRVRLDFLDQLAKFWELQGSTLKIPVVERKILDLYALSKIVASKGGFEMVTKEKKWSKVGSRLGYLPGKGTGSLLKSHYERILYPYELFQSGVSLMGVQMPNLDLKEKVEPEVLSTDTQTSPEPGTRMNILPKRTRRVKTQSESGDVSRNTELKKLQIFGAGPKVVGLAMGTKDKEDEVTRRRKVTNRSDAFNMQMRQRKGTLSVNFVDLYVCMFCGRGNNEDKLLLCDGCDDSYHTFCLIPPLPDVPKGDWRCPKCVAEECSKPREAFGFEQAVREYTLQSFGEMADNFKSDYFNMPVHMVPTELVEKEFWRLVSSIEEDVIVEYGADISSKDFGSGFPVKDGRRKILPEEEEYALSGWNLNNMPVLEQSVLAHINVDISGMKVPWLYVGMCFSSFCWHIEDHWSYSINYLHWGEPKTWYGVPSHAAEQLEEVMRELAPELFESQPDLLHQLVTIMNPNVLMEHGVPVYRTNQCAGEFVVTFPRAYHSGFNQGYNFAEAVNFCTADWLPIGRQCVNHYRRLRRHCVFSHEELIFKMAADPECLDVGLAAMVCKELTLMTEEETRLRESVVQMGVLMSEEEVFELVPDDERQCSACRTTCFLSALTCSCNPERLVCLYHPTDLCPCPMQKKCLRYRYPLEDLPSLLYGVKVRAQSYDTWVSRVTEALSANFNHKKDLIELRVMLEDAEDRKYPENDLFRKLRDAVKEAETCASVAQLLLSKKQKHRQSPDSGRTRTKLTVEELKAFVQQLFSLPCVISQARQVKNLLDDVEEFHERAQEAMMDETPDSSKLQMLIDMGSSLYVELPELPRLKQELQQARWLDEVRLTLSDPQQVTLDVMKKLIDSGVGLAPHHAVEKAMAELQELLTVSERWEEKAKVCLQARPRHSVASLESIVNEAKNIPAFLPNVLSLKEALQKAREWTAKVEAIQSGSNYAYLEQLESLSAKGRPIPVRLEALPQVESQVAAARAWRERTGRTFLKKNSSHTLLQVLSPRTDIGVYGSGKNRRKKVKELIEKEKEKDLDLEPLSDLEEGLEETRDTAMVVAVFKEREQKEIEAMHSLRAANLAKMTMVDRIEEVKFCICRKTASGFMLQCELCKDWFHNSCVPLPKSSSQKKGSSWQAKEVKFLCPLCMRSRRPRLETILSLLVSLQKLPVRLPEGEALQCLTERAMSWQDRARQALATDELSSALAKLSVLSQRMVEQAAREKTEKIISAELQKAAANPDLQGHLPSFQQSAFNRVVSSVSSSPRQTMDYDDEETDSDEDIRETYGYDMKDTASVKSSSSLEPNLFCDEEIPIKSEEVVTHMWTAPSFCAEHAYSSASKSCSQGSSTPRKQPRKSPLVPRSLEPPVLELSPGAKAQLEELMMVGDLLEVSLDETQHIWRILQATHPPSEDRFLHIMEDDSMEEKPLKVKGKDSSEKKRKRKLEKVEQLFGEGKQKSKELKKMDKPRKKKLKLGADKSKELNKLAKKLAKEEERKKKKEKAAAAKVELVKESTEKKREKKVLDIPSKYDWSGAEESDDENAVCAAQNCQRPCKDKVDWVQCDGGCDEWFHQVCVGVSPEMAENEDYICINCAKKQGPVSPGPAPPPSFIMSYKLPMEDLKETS

O=C(O)c1ccncc1NCC1CCc2ccccc21 (stereo not drawn)
< 100 nM: all assays above
